Measured values: article PMC3572379, “Pharmacokinetic and pharmacodynamic effects of comedication of clopidogrel and dabigatran etexilate in healthy male volunteers” (European Journal of Clinical Pharmacology, 2012)
Where two headings read alike, the source gives them in different places. Marks after values point to notes of the source that are not given here. Each block holds one compound with its values, some of them ahead of it.

Columns and labels:
[1] = Safety and tolerability assessment; format: in vivo, healthy male subjects
[2] = Plasma pharmacokinetics (HPLC-MS/MS) in open-label drug–drug interaction trial
Procedure: The treatment phase was divided into three separate parts, each with a different set of subjects. Part 1 (pilot study) was an open-label, multiple-dose (for dabigatran etexilate) and single-dose (for clopidogrel), fixed-sequence study. A single dose of clopidogrel 300 mg was given in addition to dabigatran etexilate 150 mg bid in steady state (Table 1). Part 2 (main study) was a randomized, open-label, multiple-dose, crossover study, with three periods of up to 5 days separated by washout periods of at least 14 days. The test treatment consisted of a clopidogrel 300 mg loading dose on day 1, followed by a 75 mg dose on day 2, then clopidogrel 75 mg qd in combination with dabigatran etexilate 150 mg bid on days 3–5 (Table 1). Part 3 (main study) was an open-label, multiple-dose (for dabigatran etexilate) and single-dose (for clopidogrel), fixed-sequence study. A single dose of clopidogrel 600 mg was given alone or in addition to dabigatran 150 mg bid at steady state (Table 1).
Although there are no reported interactions of food with dabigatran etexilate or clopidogrel, the morning medication was administered with about 240 mL of water following an overnight fast of at least 10 h, and no food was allowed until 4 h after drug administration. According to the twice-daily regimen dabigatran etexilate was similarly administered again 12 h later. Subjects were not allowed to lie down during the 2 h following drug administration, and water was limited for 1 h before and after drug administration. On dosing days a light non-standardized breakfast was given 1 h after morning drug administration. On profile days, no food was given until 4 h after administration. No concomitant therapy was allowed during the study, except for prophylactic thyroid hormone replacement and for symptomatic therapy of adverse events (AEs) in need of treatment.
For PK parameter evaluations, blood samples were taken for the determination of plasma concentrations of free, nonconjugated dabigatran, total dabigatran (after alkaline cleavage of conjugates), and the prodrug dabigatran etexilate, and of clopidogrel and SR26334.
Blood samples were taken before and at specified intervals up to 24 h after the morning clopidogrel dose, and before and up to 24 h after the morning and evening dabigatran etexilate dose. Timings of PK/PD sampling are shown in Supplementary Table 1.
Blood samples (∼2.7 mL for dabigatran and ∼4.0 mL for clopidogrel) were collected into tubes containing potassium ethylenediaminetetraacetic acid for PK analysis. Samples were centrifuged, and the resulting plasma samples were separated and stored at −70°C or below.
Plasma concentrations of free, nonconjugated dabigatran; total dabigatran (sum of free and conjugated dabigatran measured after alkaline cleavage of conjugates); the prodrug dabigatran etexilate; clopidogrel; and SR26334 were determined by validated high-performance liquid chromatography tandem mass spectrometry (HPLC-MS/MS) at AAI Pharma Deutschland (Neu-Ulm, Germany). The calibration curves for free and total dabigatran covered a range from 1.00 to 400 ng/mL plasma in undiluted samples. […] Maximum imprecision and inaccuracy for quality control samples at concentrations of 3, 30, and 320 ng/mL were 6.62 and +5.86%, respectively. For the prodrug, maximum imprecision and inaccuracy were 6.63 and +2.83%, respectively.
Calibration curves for clopidogrel and SR26334 covered concentration ranges of 0.01–10 ng/mL and 0.02–20 μg/mL, respectively, with an inaccuracy generally below 4% and imprecision below 9%. For blood coagulation parameters aPTT, ECT, and TT (PD analyses), ∼3 mL of blood were collected in sodium citrate monovettes at the time points indicated for PK analyses. The blood samples were centrifuged, frozen, and stored at −20°C or below.

[3] = system: P-gp; settings: cited from earlier work
[4] = system: ADP-induced platelet aggregation; assay: ADP-induced inhibition of platelet aggregation (light transmission aggregometry in citrated PRP); format: in vivo, healthy male subjects; settings: for Emax: Homo sapiens, Platelet
Procedure: The primary endpoints for PD were area under the effect curve of ADP-induced inhibition of platelet aggregation (IPA) at steady state of clopidogrel over one dosing interval from 0–24 h after dosing (AUECIPA,τ,ss); maximum percentage change compared with baseline in ADP-induced platelet aggregation at steady state of clopidogrel (Emax,IPA,ss); AUEC from 0 to 24 h (AUECIPA,0–24) after the loading dose of clopidogrel 600 mg; and the maximum percentage change compared with baseline in ADP-induced platelet aggregation from 0 to 24 h (Emax,IPA,0–24) after the loading dose of clopidogrel 600 mg.
The following PD parameters were also evaluated: • For clopidogrel, ADP-induced IPA was determined at predefined time points. • Capillary bleeding times were assessed (part 2 and part 3 of the study) before clopidogrel administration, 2, 4, and 12 h after clopidogrel administration, and following administration of dabigatran etexilate alone.
For platelet aggregation testing, ∼9 mL of blood was collected into a 10 mL monovette containing citrate to yield a final concentration of 10.6 mM. Platelet-rich plasma (PRP) was prepared by centrifugation and removed from the red-cell sediment. Approximately 0.5 mL platelet-poor plasma (PPP) was prepared from PRP by further centrifugation. Inhibition of platelet aggregation was performed by light transmission aggregometry in citrated PRP, using an 8-channel platelet aggregation profiler (PAP 8) aggregometer (möLab, Germany). The PRP (0% light transmission) and PPP (100% light transmission) served as reference. After baseline adjustment, ADP in a final concentration of 20 μM was added and aggregation recorded for 6 min. Maximum aggregation (%) within the first 6 min after addition of ADP was determined.

[5] = Capillary bleeding time (Surgicutt device); format: in vivo, healthy male subjects; settings: for maximum capillary bleeding time (CBT): part 2
Procedure: The bleeding time was assessed by single measurements on the forearm using the Surgicutt® Bleeding Time Device (Product Number SUB50, International Technidyne, Edison, NJ, USA). Using a Surgicutt device, a standardized incision of 5 mm length and 1 mm depth was made in the skin. Every 30 s, the blood flow was wicked away cautiously with filter paper, so that the platelet plug remained intact, until the bleeding stopped. Normal bleeding time was under 8 min. For the CBT individual listings including the baseline value, the maximum value of the post-dose measurements, and the corresponding time of the maximum value were provided.

[6] = cited from earlier work
[7] = system: blood coagulation parameters (aPTT, ECT, TT); assay: Blood coagulation parameters aPTT, ECT and TT (anti-factor IIa); format: in vivo, healthy male subjects
Procedure: The secondary endpoints included other PK parameters and the effects of clopidogrel on the PD of dabigatran assessed by ECT, aPTT, TT (including maximum effect ratio, ERmax) as well as the CBT.
Calibration curves for clopidogrel and SR26334 covered concentration ranges of 0.01–10 ng/mL and 0.02–20 μg/mL, respectively, with an inaccuracy generally below 4% and imprecision below 9%. For blood coagulation parameters aPTT, ECT, and TT (PD analyses), ∼3 mL of blood were collected in sodium citrate monovettes at the time points indicated for PK analyses. The blood samples were centrifuged, frozen, and stored at −20°C or below. The aPTT, ECT, and TT parameters were analyzed on an MC10PLUS coagulometer using validated methods by BiochemA, Riegel, Germany. aPTT was measured using a kit from Roche Diagnostics (Mannheim, Germany) according to manufacturer’s instructions, and the ECT assay utilized ecarin from Pentapharm (Basel, Switzerland). Thrombin inhibition (TT), anti-factor IIa, was measured by the Hemoclot Thrombin Inhibitors Assay® (Hemoclot® TT #CK002K, HYPHEN BioMed, Neuville-sur-Oise, France) according to the manufacturer’s instructions. The Hemoclot kit was used for the quantitative measurement of direct thrombin inhibitors in plasma, with a clotting method based on the inhibition of a constant and defined concentration of thrombin.
AUEC and ERmax of aPTT, ECT, and TT as well as CBT, and safety and tolerability were assessed descriptively as secondary parameters.

[8] = cited from earlier work; remark: listed apart in the source
[9] = male, human, in vivo, po, 75 mg
[10] = male, human, in vivo, po, 600 mg
[11] = part 2, clopidogrel 75 mg qd + DE 150 mg bid vs clopidogrel 75 mg qd
[12] = part 3, clopidogrel 600 mg + DE 150 mg bid vs clopidogrel 600 mg
[13] = part 3, reference: clopidogrel 600 mg single dose, n 12
[14] = part 2, reference: clopidogrel 75 mg qd alone, n=23
[15] = part 2, test: clopidogrel 75 mg qd + DE 150 mg bid, n=21, clopidogrel metabolite
[16] = part 3, DE 150 mg bid + clopidogrel 600 mg vs clopidogrel 600 mg

SMILES: COC(=O)[C@H](c1ccccc1Cl)N1CCc2sccc2C1 [Clopidogrel, clopidogrel]
AEs considered related to the study drugs ([1]; one subject each, parts 2 and 3): hematoma
AUCτ,ss, gMean [2, 9]: 1400^b pg·h/mL
Cmax,ss, gMean [2, 9]: 0.625 ng/mL
AUC0-24, gMean [2, 10]: 10.574 ng·h/mL
CL/Fss, gMean [2, 10]: 911000 mL/min
Cmax, gMean [2, 10]: 4.013 ng/mL
substrate of P-gp [3]: substrate of P-gp
Emax ([4]; part 1, after single dose clopidogrel 300 mg, data not shown, read-out: maximum inhibition of ADP-dependent platelet aggregation (Emax)): ~50%
Emax ([4]; part 2, reference: clopidogrel 75 mg qd, n 23, read-out: Emax, ss, mean (maximum percentage change in ADP-induced platelet aggregation)): 58.8%
Emax ([4]; part 2, test: clopidogrel 75 mg qd + DE 150 mg bid, n 21, read-out: Emax, ss, mean (maximum percentage change in ADP-induced platelet aggregation)): 55.1%
Emax ([4]; part 3, reference: clopidogrel 600 mg single dose, n 12, read-out: Emax, mean (maximum percentage change in ADP-induced platelet aggregation)): ~60%
Emax ([4]; part 3, test: clopidogrel 600 mg + DE 150 mg bid, n 11, read-out: Emax, mean (maximum percentage change in ADP-induced platelet aggregation)): 66.8%
AUECIPA, τ,ss difference test – reference [4, 11]: −39.7 %·h
AUECIPA, τ,ss difference test – reference, relative [4, 11]: −8.0%
AUECIPA, τ,ss, mean ([4]; part 2, reference: clopidogrel 75 mg qd, n 21): 496 %·h
AUECIPA, τ,ss, mean ([4]; part 2, test: clopidogrel 75 mg qd + DE 150 mg bid, n 21): 456 %·h
AUEC0–24h difference test – reference [4, 12]: −84.6 %·h
AUEC0–24h difference test – reference, relative [4, 12]: −6.7%
AUEC0–24h of IPA, mean [4, 13]: 1264 %·h
Emax, mean (maximum percentage change in ADP-induced platelet aggregation) [4, 13]: 66.0%
AUEC0–24h of IPA, mean ([4]; part 3, reference: clopidogrel 600 mg single dose, n 12, listed as clopidogrel): 1,264 %·h
AUEC0–24h of IPA, mean ([4]; part 3, test: clopidogrel 600 mg + DE 150 mg bid, n 11): 1179 %·h
AUEC0–24h of IPA, mean ([4]; part 3, test: clopidogrel 600 mg + DE 150 mg bid, n 11, listed as clopidogrel): 1,179 %·h
maximum capillary bleeding time (CBT) [5]: prolonged
bleeding time, overall least square means [6]: 1.96 times baseline
effect on dabigatran PK/PD relationship (TT, ECT, aPTT vs plasma concentration) ([7]; part 2, DE given alone or in combination with clopidogrel): No effect

AUC0–24 ([2]; part 1, clopidogrel 300 mg single dose with DE 150 mg bid): 35,400 pg h/mL
AUCτ,ss ratio test/reference, gMean [2, 11]: 110%
Cmax,ss ratio test/reference, gMean [2, 11]: 103%
AUCτ,ss, gMean [2, 14]: 8008 ng·h/mL
Cmax,ss, gMean [2, 14]: 2689 ng/mL
AUCτ,ss, gMean [2, 15]: 8807 ng·h/mL
Cmax,ss, gMean [2, 15]: 2760 ng/mL
AUC0-24 ratio test/reference, gMean [2, 16]: 97.8%
Cmax ratio test/reference, gMean [2, 16]: 85.7%
AUC0-24, gMean ([2]; part 3, reference: clopidogrel 600 mg alone, n=12): 84.3 ng·h/mL
AUC0-24, gMean ([2]; part 3, test: DE 150 mg bid + single dose clopidogrel 600 mg): 82.5 ng·h/mL
SMILES: O=C(O)[C@H](c1ccccc1Cl)N1CCc2sccc2C1 [SR26334]

SMILES: CCCCCCOC(=O)NC(=N)c1ccc(NCc2nc3cc(C(=O)N(CCC(=O)OCC)c4ccccn4)ccc3n2C)cc1 [dabigatran etexilate]
overall safety ([1]; given alone or in combination with clopidogrel): did not seem to cause any safety issues
substrate for P-gp [3]: is a substrate for P-gp
effect of coadministration on maximum ADP-dependent platelet aggregation achieved after clopidogrel ([4]; DE 150 mg coadministered, after single dose clopidogrel 300 mg): did not alter
CBT on coadministration compared with clopidogrel alone ([5]; part 3, DE 150 mg bid with clopidogrel 600 mg vs single dose clopidogrel 600 mg alone): did not increase
increase in gMean AUECτ,ss of aPTT ([7]; part 1, DE 150 mg bid steady state with single dose clopidogrel 300 mg vs DE alone): about 30%
AUEC τ,ss and ERmax,ss of TT, ECT and aPTT after concomitant administration ([7]; part 2, clopidogrel 75 mg qd (300 mg loading dose) + DE 150 mg bid): not altered
change in AUECτ,ss of aPTT ([7]; part 3, DE 150 mg bid with single dose clopidogrel 600 mg vs DE alone): approximately 36.5%
dabigatran-related effect on TT, ECT and aPTT when clopidogrel coadministered ([7]; part 3, single dose clopidogrel 600 mg coadministered with DE 150 mg bid): slightly increased

increase in bioavailability (AUCτ,ss) ([2]; male, human, in vivo): 32%
SMILES: [H]/N=C(/N)c1ccc(NCc2nc3cc(C(=O)N(CCC(=O)O)c4ccccn4)ccc3n2C)cc1 [dabigatran]
substrate for P-gp [3]: not
maximum capillary bleeding time (CBT) [5]: did not prolong
effect on coagulation parameters (aPTT, ECT, anti-factor IIa) when clopidogrel added ([7]; part 1, single dose clopidogrel 300 mg added to steady-state DE 150 mg bid): slightly increased
glucuronide conjugates as share of total dabigatran in plasma [8]: about 20%
half-life ([8]; multiple-dose administration): 14 to 17 h
half-life ([8]; single-dose administration): 8 to 10 h

SMILES: O=C(NC[C@H]1CN(c2ccc(N3CCOCC3=O)cc2)C(=O)O1)c1ccc(Cl)s1 [rivaroxaban]
bleeding time, overall least square means [6]: 1.13 times baseline

SMILES: CCOC(=O)CN[C@@H](C(=O)N1CC[C@H]1C(=O)NCc1ccc(/C(N)=N\O)cc1)C1CCCCC1 [ximelagatran]
further prolongation of CBT ([6]; phase I trial, in combination with acetylsalicylic acid (ASA) compared with ASA alone): about 40%
